# Measured values from US20050197350A1, “Novel quinoline, tetrahydroquinazoline, and pyrimidine derivatives and methods of treatment related to the use thereof” (TAISHO PHARMACEUTICAL CO., LTD., priority 2003, published 2005).
# Test system: MCH receptors
# Assay: MCH receptor activity class (method not given)
# Conditions: activity class per percent of control at 10^-7 M or IC50
row,Structure (SMILES),class
1,COc1ccc2ccccc2c1CNC[C@H]1CC[C@@H](Nc2cc(N(C)C)c3ccccc3n2)CC1 [compound 1128],3 (Class 3 The value of percent of control at 10^−7 M was more than 60% or the value of IC50 was more than 200 nM.)
2,COc1cc(Br)cc(CNC[C@H]2CC[C@@H](Nc3cc(N(C)C)c4ccccc4n3)CC2)c1O [compound 1129],2 (Class 2: The value of percent of control at 10^−7 M was from 40% to 60% or the value of IC′50 was from 50 nM to 200 nM.)
3,CN(C)c1cc(N[C@H]2CC[C@@H](CNCc3c[nH]c4ccc(Br)cc34)CC2)nc2ccccc12 [compound 1130],2 (Class 2: The value of percent of control at 10^−7 M was from 40% to 60% or the value of IC′50 was from 50 nM to 200 nM.)
4,COc1ccc(CNC[C@H]2CC[C@@H](Nc3cc(N(C)C)c4ccccc4n3)CC2)c(OC)c1 [compound 1131],3 (Class 3 The value of percent of control at 10^−7 M was more than 60% or the value of IC50 was more than 200 nM.)
5,COc1ccc(CNC[C@H]2CC[C@@H](Nc3cc(N(C)C)c4ccccc4n3)CC2)c(OC)c1OC [compound 1132],3 (Class 3 The value of percent of control at 10^−7 M was more than 60% or the value of IC50 was more than 200 nM.)
6,COc1cc(CNC[C@H]2CC[C@@H](Nc3cc(N(C)C)c4ccccc4n3)CC2)cc(OC)c1O [compound 1133],3 (Class 3 The value of percent of control at 10^−7 M was more than 60% or the value of IC50 was more than 200 nM.)
7,CCOc1cc(CNC[C@H]2CC[C@@H](Nc3cc(N(C)C)c4ccccc4n3)CC2)ccc1OC [compound 1134],3 (Class 3 The value of percent of control at 10^−7 M was more than 60% or the value of IC50 was more than 200 nM.)
8,CN(C)c1cc(N[C@H]2CC[C@@H](CNCc3c[nH]nc3-c3ccc(C(F)(F)F)cc3)CC2)nc2ccccc12 [compound 1135],3 (Class 3 The value of percent of control at 10^−7 M was more than 60% or the value of IC50 was more than 200 nM.)
9,COc1cc(CNC[C@H]2CC[C@@H](Nc3cc(N(C)C)c4ccccc4n3)CC2)cc(OC)c1OC [compound 1136],3 (Class 3 The value of percent of control at 10^−7 M was more than 60% or the value of IC50 was more than 200 nM.)
10,COc1cc(CNC[C@H]2CC[C@@H](Nc3cc(N(C)C)c4ccccc4n3)CC2)cc(OC)c1 [compound 1138],3 (Class 3 The value of percent of control at 10^−7 M was more than 60% or the value of IC50 was more than 200 nM.)
11,COc1cc(CNC[C@H]2CC[C@@H](Nc3cc(N(C)C)c4ccccc4n3)CC2)cc(I)c1O [compound 1139],3 (Class 3 The value of percent of control at 10^−7 M was more than 60% or the value of IC50 was more than 200 nM.)
12,Cc1cc(CNC[C@H]2CC[C@@H](Nc3cc(N(C)C)c4ccccc4n3)CC2)cc(C)c1O [compound 1140],3 (Class 3 The value of percent of control at 10^−7 M was more than 60% or the value of IC50 was more than 200 nM.)
13,COc1ccc(CNC[C@H]2CC[C@@H](Nc3cc(N(C)C)c4ccccc4n3)CC2)cc1 [compound 1141],3 (Class 3 The value of percent of control at 10^−7 M was more than 60% or the value of IC50 was more than 200 nM.)
14,CN(C)c1cc(N[C@H]2CC[C@@H](CNCc3ccc4c(c3)OCCO4)CC2)nc2ccccc12 [compound 1142],3 (Class 3 The value of percent of control at 10^−7 M was more than 60% or the value of IC50 was more than 200 nM.)
15,CN(C)c1cc(N[C@H]2CC[C@@H](CNCc3cccc(Br)c3)CC2)nc2ccccc12 [compound 1143],3 (Class 3 The value of percent of control at 10^−7 M was more than 60% or the value of IC50 was more than 200 nM.)
16,COc1cc(OC)c(CNC[C@H]2CC[C@@H](Nc3cc(N(C)C)c4ccccc4n3)CC2)cc1Br [compound 1144],2 (Class 2: The value of percent of control at 10^−7 M was from 40% to 60% or the value of IC′50 was from 50 nM to 200 nM.)
17,COc1ccc(Br)cc1CNC[C@H]1CC[C@@H](Nc2cc(N(C)C)c3ccccc3n2)CC1 [compound 1145],3 (Class 3 The value of percent of control at 10^−7 M was more than 60% or the value of IC50 was more than 200 nM.)
18,CN(C)c1cc(N[C@H]2CC[C@@H](CNCc3ccc(O)cc3Cl)CC2)nc2ccccc12 [compound 1146],3 (Class 3 The value of percent of control at 10^−7 M was more than 60% or the value of IC50 was more than 200 nM.)
19,CN(C)c1cc(N[C@H]2CC[C@@H](CNCc3ccccc3C#N)CC2)nc2ccccc12 [compound 1147],3 (Class 3 The value of percent of control at 10^−7 M was more than 60% or the value of IC50 was more than 200 nM.)
20,CN(C)c1cc(N[C@H]2CC[C@@H](CNCc3ccc(Cl)cc3)CC2)nc2ccccc12 [compound 1149],3 (Class 3 The value of percent of control at 10^−7 M was more than 60% or the value of IC50 was more than 200 nM.)
21,CCN(CC)c1ccc(CNC[C@H]2CC[C@@H](Nc3cc(N(C)C)c4ccccc4n3)CC2)cc1 [compound 1150],3 (Class 3 The value of percent of control at 10^−7 M was more than 60% or the value of IC50 was more than 200 nM.)
22,CN(C)c1ccc(CNC[C@H]2CC[C@@H](Nc3cc(N(C)C)c4ccccc4n3)CC2)cc1 [compound 1151],3 (Class 3 The value of percent of control at 10^−7 M was more than 60% or the value of IC50 was more than 200 nM.)
23,CCn1c2ccccc2c2cc(CNC[C@H]3CC[C@@H](Nc4cc(N(C)C)c5ccccc5n4)CC3)ccc21 [compound 1152],3 (Class 3 The value of percent of control at 10^−7 M was more than 60% or the value of IC50 was more than 200 nM.)
24,CN(C)c1cc(N[C@H]2CC[C@@H](CNCc3cc(C(F)(F)F)ccc3F)CC2)nc2ccccc12 [compound 1153],3 (Class 3 The value of percent of control at 10^−7 M was more than 60% or the value of IC50 was more than 200 nM.)
25,CN(C)c1cc(N[C@H]2CC[C@@H](CNCc3ccc(O)cc3)CC2)nc2ccccc12 [compound 1154],3 (Class 3 The value of percent of control at 10^−7 M was more than 60% or the value of IC50 was more than 200 nM.)

# Same assay, conditions: class by percent of control at 10^-7 M or IC50
row,Structure (SMILES),class
1,CN(C)c1cc(N[C@H]2CC[C@@H](CNCc3ccc(CO)o3)CC2)nc2ccccc12 [compound 1155],3 (Class 3 The value of percent of control at 10^−7 M was more than 60% or the value of IC50 was more than 200 nM.)
2,CC(C)Oc1ccc(CNC[C@H]2CC[C@@H](Nc3cc(N(C)C)c4ccccc4n3)CC2)cc1 [compound 1156],3 (Class 3 The value of percent of control at 10^−7 M was more than 60% or the value of IC50 was more than 200 nM.)
3,CCc1ccc(CNC[C@H]2CC[C@@H](Nc3cc(N(C)C)c4ccccc4n3)CC2)s1 [compound 1157],3 (Class 3 The value of percent of control at 10^−7 M was more than 60% or the value of IC50 was more than 200 nM.)
4,CN(C)c1cc(N[C@H]2CC[C@@H](CNCC=C(c3ccccc3)c3ccccc3)CC2)nc2ccccc12 [compound 1158],1 (Class 1: The value of percent of control at 10^−7 M was less than 40% or the value of IC50 was less than 50 nM.)
5,CCOc1cc(CNC[C@H]2CC[C@@H](Nc3cc(N(C)C)c4ccccc4n3)CC2)ccc1O [compound 1159],3 (Class 3 The value of percent of control at 10^−7 M was more than 60% or the value of IC50 was more than 200 nM.)
6,CN(C)c1cc(N[C@H]2CC[C@@H](CNCc3ccc(N(C)C)c4ccccc34)CC2)nc2ccccc12 [compound 1160],3 (Class 3 The value of percent of control at 10^−7 M was more than 60% or the value of IC50 was more than 200 nM.)
7,COc1cc(OC)c(CNC[C@H]2CC[C@@H](Nc3cc(N(C)C)c4ccccc4n3)CC2)c(OC)c1 [compound 1161],2 (Class 2: The value of percent of control at 10^−7 M was from 40% to 60% or the value of IC′50 was from 50 nM to 200 nM.)
8,CN(C)c1cc(N[C@H]2CC[C@@H](CNCc3cc(Cl)cc(Br)c3O)CC2)nc2ccccc12 [compound 1162],3 (Class 3 The value of percent of control at 10^−7 M was more than 60% or the value of IC50 was more than 200 nM.)
9,CN(C)c1cc(N[C@H]2CC[C@@H](CNCc3cccc(C#N)c3)CC2)nc2ccccc12 [compound 1163],3 (Class 3 The value of percent of control at 10^−7 M was more than 60% or the value of IC50 was more than 200 nM.)
10,COc1ccc(F)c(CNC[C@H]2CC[C@@H](Nc3cc(N(C)C)c4ccccc4n3)CC2)c1 [compound 1164],3 (Class 3 The value of percent of control at 10^−7 M was more than 60% or the value of IC50 was more than 200 nM.)
11,CN(C)c1cc(N[C@H]2CC[C@@H](CNCc3ccccc3SC(F)(F)F)CC2)nc2ccccc12 [compound 1165],3 (Class 3 The value of percent of control at 10^−7 M was more than 60% or the value of IC50 was more than 200 nM.)
12,CCOc1ccc(Br)cc1CNC[C@H]1CC[C@@H](Nc2cc(N(C)C)c3ccccc3n2)CC1 [compound 1166],3 (Class 3 The value of percent of control at 10^−7 M was more than 60% or the value of IC50 was more than 200 nM.)
13,COc1ccc(CNC[C@H]2CC[C@@H](Nc3cc(N(C)C)c4ccccc4n3)CC2)c(OC)c1C [compound 1167],3 (Class 3 The value of percent of control at 10^−7 M was more than 60% or the value of IC50 was more than 200 nM.)
14,CN(C)c1cc(N[C@H]2CC[C@@H](CNCc3ccccc3OC(F)(F)F)CC2)nc2ccccc12 [compound 1168],3 (Class 3 The value of percent of control at 10^−7 M was more than 60% or the value of IC50 was more than 200 nM.)
15,CCOc1ccc(OCC)c(CNC[C@H]2CC[C@@H](Nc3cc(N(C)C)c4ccccc4n3)CC2)c1 [compound 1169],2 (Class 2: The value of percent of control at 10^−7 M was from 40% to 60% or the value of IC′50 was from 50 nM to 200 nM.)
16,CCOc1ccc(CNC[C@H]2CC[C@@H](Nc3cc(N(C)C)c4ccccc4n3)CC2)c(OCC)c1 [compound 1170],2 (Class 2: The value of percent of control at 10^−7 M was from 40% to 60% or the value of IC′50 was from 50 nM to 200 nM.)
17,COc1c(Br)cc(Br)cc1CNC[C@H]1CC[C@@H](Nc2cc(N(C)C)c3ccccc3n2)CC1 [compound 1171],2 (Class 2: The value of percent of control at 10^−7 M was from 40% to 60% or the value of IC′50 was from 50 nM to 200 nM.)
18,CN(C)c1cc(N[C@H]2CC[C@@H](CNCc3ccccc3OC(F)F)CC2)nc2ccccc12 [compound 1172],3 (Class 3 The value of percent of control at 10^−7 M was more than 60% or the value of IC50 was more than 200 nM.)
